Series [1] is described as follows: LD50 determination, intraperitoneal administration. Conditions: mouse, in vivo, ip.
Series [2] has as its target T1, Cyclooxygenase 2 derived from sheep placentae (Ovis aries, UniProt P79208).
T1 sequence (P79208 17-603): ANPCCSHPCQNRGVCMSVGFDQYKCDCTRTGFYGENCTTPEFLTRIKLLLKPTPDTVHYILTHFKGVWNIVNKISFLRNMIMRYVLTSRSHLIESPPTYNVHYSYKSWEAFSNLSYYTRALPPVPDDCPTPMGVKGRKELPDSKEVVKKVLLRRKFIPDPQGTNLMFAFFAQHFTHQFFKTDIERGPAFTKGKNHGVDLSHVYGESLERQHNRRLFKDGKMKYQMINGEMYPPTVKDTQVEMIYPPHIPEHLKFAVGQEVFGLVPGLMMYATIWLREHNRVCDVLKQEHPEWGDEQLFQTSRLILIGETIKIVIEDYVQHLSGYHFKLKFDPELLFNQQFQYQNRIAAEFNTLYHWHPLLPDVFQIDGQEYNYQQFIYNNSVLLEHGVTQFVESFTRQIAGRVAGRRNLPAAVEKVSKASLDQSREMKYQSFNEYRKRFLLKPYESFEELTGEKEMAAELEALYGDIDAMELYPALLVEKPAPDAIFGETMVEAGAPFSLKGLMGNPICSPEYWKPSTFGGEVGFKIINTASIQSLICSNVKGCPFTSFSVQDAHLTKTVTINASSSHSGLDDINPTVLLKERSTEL
The series is described as follows: In vitro inhibition of cyclooxygenase 2 activity (synthesis of prostaglandin H2 from 14C-arachidonic acid, TLC autoradiography). Conditions: sheep placenta COX-2, 35° C., 30 min.
Procedure: Arachidonic acid was used as the substrate in the present example. Ten μl of arachidonic acid was dissolved in methanol (10 mg/ml) and mixed with 5 μCi of ^14C-labeled arachidonic acid; and to obtain a dried substrate, the solvent was evaporated by blowing with nitrogen gas at room temperature. Subsequently, the substrate was dissolved in 50 μl of dimethylsulfoxide (DMSO), and 10 ml of 5 mM Tris-HCl buffer (pH 8.0) containing 2 mM phenol was added to the substrate solution, followed by sonication to completely dissolve the sample. Separately, test compounds having final concentrations of 0.1-10 μM were prepared. […] Five μl of each compound solution was added to 5 μl of the above substrate solution, followed by mixing. The samples were then preincubated at 35° C. for about 10 min. Cyclooxygenase 2 derived from sheep placentae (Cayman Chem.) had been separately diluted 10-fold with the above buffer, and 20 μl of the enzyme solution was added to each of the above samples. The enzyme reaction was carried out at 35° C. for 30 min, and stopped by adding 0.5 ml of ice-cold ethanol to each sample. Then, to 0.9 ml of each sample, 2.0 ml of 2% acetic acid solution was added. Arachidonic acid and its metabolite prostaglandin H2 were then extracted with 3.0 ml of ethyl acetate. From each extracted sample, a 2.0-ml portion was transferred to a new test tube. The solvent was distilled off from the transferred samples under reduced pressure, and the samples were dried in vacuo. Then each dried sample was dissolved in 100 μl of methanol, out of which 5 μl was subjected to analysis by high resolution thin layer chromatography. Arachidonic acid and its metabolite prostaglandin H2 were separated by chromatography with a developing solution of chloroform, ethyl acetate, methanol, acetic acid and water in proportions of 70:30:8:1:0.5 (v/v). The chromatography plate, together with a ^14C-standard substance, was exposed to an imaging plate (Fuji Film), and was analyzed with Fuji Film Bio-Image analyzer BAS-2000 to obtain an autoradiogram. By scanning of spots corresponding to the standard radioactive samples, a standard dose-response curve was plotted. Then, by use of the standard curve, each scanned value of arachidonic acid spots and prostaglandin H2 spots was converted to a amount of radiation. Indomethacin was purchased from Sigma, and PZ25 was a gift from Rhone-Poulenc Rorer.

The next series deals with rat. Description: LD50 determination in rats. The class given is in vivo.
The nature of series [3]: LD50 determination, oral administration. Conditions: mouse, in vivo.

The text below walks through data of patent publication US6495517B2, “Cyclooxygenase inhibitor” (A. Natterman & Cie. GmbH, priority 1998, dated 2002).

`O=c1c2ccccc2[se]n1-c1ccccc1` [Compound A, 2-phenyl-1,2-benzisoselenazol-3(2H)-one]: the LD50 is 740 mg/kg in series [1], “large doses were required” in the series with rat and at least 6810 mg/kg in series [3]. Besides, the “Generated Amount of Prostaglandin H2 (%)” value in series [2] (dose of compound 1 μM) is listed as 91.8 ± 14.3%; in series [2] (dose of compound 3 μM), 78.6 ± 5.28%; in series [2] (dose of compound 10 μM), 46.88 ± 6.49 %; in series [2] (dose of compound 30 μM), 20.10 ± 1.95 %.

Turning to `O=c1c2ccccc2sn1-c1ccccc1` [PZ25, 2-phenyl-1,2-benzisothiazol-3(2H)-one, reference compound], the “Generated Amount of Prostaglandin H2 (%)” value in series [2] (dose of compound 3 μM) stood at 103.25 ± 9.29%; in series [2] (dose of compound 10 μM), 103.53 ± 11.2%; in series [2] (dose of compound 30 μM) it was 93.9 ± 9.06%.
